SMILES strings stand for the structures.

For the assay, the target named is T1, human renin (Homo sapiens, UniProt P00797).
T1 construct: added to human plasma (75 μl) containing EDTA; from tissue; host or cells: human plasma
T1 sequence (P00797 67-406): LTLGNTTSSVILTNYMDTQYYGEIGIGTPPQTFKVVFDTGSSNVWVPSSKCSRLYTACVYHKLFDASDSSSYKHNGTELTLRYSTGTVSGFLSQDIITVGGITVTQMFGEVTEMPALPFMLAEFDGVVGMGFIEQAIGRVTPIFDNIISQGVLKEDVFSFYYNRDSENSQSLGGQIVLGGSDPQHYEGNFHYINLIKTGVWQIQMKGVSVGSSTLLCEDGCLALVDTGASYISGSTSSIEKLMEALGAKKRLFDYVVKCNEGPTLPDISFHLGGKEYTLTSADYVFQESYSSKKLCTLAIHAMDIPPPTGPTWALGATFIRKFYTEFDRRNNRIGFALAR
The experiment in a line: plasma renin assay (radioimmunoassay of angiotensin-I released in human plasma). Type of assay: biochemical. To be noted: human renin and human renin substrate in human plasma, 37° C., pH 6.9, angiotensin-I by radioimmunoassay; read-out: IC50 (the molar concentration required to cause 50% inhibition), renin inhibitory activity. On the procedure:
It is based on the measurement, by radiommunoassay, of Angiotensin-I released from human renin substrate by human renin in human plasma. The inhibitor is dissolved in 0.01N HCl (10 μl) and added to human plasma (75 μl) containing EDTA, and angiotensin-I antibody ([…]) in 3M-Tris.HCl buffer (pH 6.9).
Free and bound ligand are separated by the addition of dextran-coated charcoal, and the amount of bound radio-ligand determined in a gamma counter.
For the compound `CC(C)(C)OC(=O)N[C@@H](Cc1ccccc1)C(=O)N[C@@H](Cc1c[nH]cn1)C(=O)N[C@@H](CC1CCCCC1)[C@@H](O)CS(=O)(=O)CC(=O)NC1CCN(Cc2ccccc2)CC1` [1-benzyl-4-[2-[X-sulfonyl]acetamido]piperidine], the IC50 was 34 nM.
In the case of `CN1CCN(C(=O)CSC[C@H](O)[C@H](CC2CCCCC2)NC(=O)[C@H](Cc2cnc[nH]2)NC(=O)[C@H](Cc2ccccc2)NC(=O)OC(C)(C)C)CC1` [4-[2-[X-thio]acetyl]-1-methylpiperazine, 4-[2-[[(2R,3S)-3-(Boc-L-phenylalanyl-L-histidylamino)-4-cyclohexyl-2-hydroxy-1-butyl]thio]acetyl]-1-methylpiperazine], the IC50 worked out at 29 nM.
In the case of `CC(C)(C)OC(=O)N[C@@H](Cc1ccccc1)C(=O)N[C@@H](Cc1c[nH]cn1)C(=O)N[C@@H](CC1CCCCC1)[C@@H](O)CS(=O)(=O)CC(=O)NC1C[N+]2([O-])CCC1CC2` (stereo partly shown) [3-[2-[X-sulfonyl]acetamido]quinuclidine-N-oxide], the IC50 is 4.2 nM.
In the case of `CC(C)(C)OC(=O)NC(Cc1ccccc1)C(=O)NC(Cc1cnc[nH]1)C(=O)NC(CC1CCCCC1)C(O)CSCC(=O)NC1CN2CCC1CC2` (stereo not shown) [3-[2-[X-thio]acetamido}quinuclidine] it was 29 nM; in that of `CC(C)(C)OC(=O)N[C@@H](Cc1ccccc1)C(=O)N[C@@H](Cc1cnc[nH]1)C(=O)N[C@@H](CC1CCCCC1)[C@@H](O)CSCC(=O)NCCN1CCOCC1` [4-[2-[2-[X-thio]acetamido]ethyl]morpholine], 40 nM; in that of `CCOC(=O)CSC[C@H](O)[C@H](CC1CCCCC1)NC(=O)[C@H](Cc1cnc[nH]1)NC(=O)[C@H](Cc1ccccc1)NC(=O)OC(C)(C)C` [ethyl 2-[X-thio]acetate, ethyl 2-[[(2R,3S) 3-(Boc-L-phenylalanyl-L-histidylamino)-4-cyclohexyl-2-hydroxy-1-butyl]thio]acetate], 58 nM.
For the compound `CC(C)(C)OC(=O)N[C@@H](Cc1ccccc1)C(=O)N[C@@H](Cc1c[nH]cn1)C(=O)N[C@@H](CC1CCCCC1)[C@@H](O)CSCC(=O)O` [2-[X-thio]acetic acid, 2-[[(2R,3S)-3-(Boc-L-phenylalanyl-L-histidylamino)-4-cyclohexyl-2-hydroxy-1-butyl]thio]acetic acid], the IC50 was found to be 904 nM.
With `CC(C)(C)OC(=O)N[C@@H](Cc1ccccc1)C(=O)N[C@@H](Cc1cnc[nH]1)C(=O)N[C@@H](CC1CCCCC1)[C@@H](O)C[S+]([O-])CC(=O)NCCN1CCOCC1` (stereo partly drawn) [4-[[(2R,3S)-3-(Boc-L-phenylalanyl-L-histidylamino)-4-cyclohexyl-2-hydroxy-1-butyl]-sulfinyl]acetyl]amino]ethyl]morpholine], the IC50 was found to be 19 nM.
Next, `CN1CCN(C(=O)CS(=O)(=O)C[C@H](O)[C@H](CC2CCCCC2)NC(=O)[C@H](Cc2cnc[nH]2)NC(=O)[C@H](Cc2ccccc2)NC(=O)OC(C)(C)C)CC1` [4-[2-[X-sulfonyl]acetyl]-1-methylpiperazine]: 20 nM; `CC(C)CC(C(=O)NCCN1CCOCC1)S(=O)(=O)C[C@H](O)[C@H](CC1CCCCC1)NC(=O)[C@H](Cc1c[nH]cn1)NC(=O)[C@H](Cc1ccccc1)NC(=O)OC(C)(C)C` (stereo partly shown) [4-[2-[[2 ---- RS )-2 [X-sulfonyl]-4-methyl-pentanoyl]amino]ethyl]morpholine]: 77 nM; `CC(C)(C)S(=O)(=O)C[C@@H](Cc1ccccc1)C(=O)N[C@@H](Cc1c[nH]cn1)C(=O)N[C@@H](CC1CCCCC1)[C@@H](O)CS(=O)(=O)CC(=O)NCCN1CCOCC1` [4-[2-[2-[[(2R,3S)3-[N^α -[(S)-2-[(t-Butylsulfonyl)-methyl]-3-phenylpropionyl]-L-histidylamino]-4-cyclohexyl-2-hydroxy-1-butyl]sulfonyl]-acetamido]ethyl]morpholine]: 7.2 nM.
In the case of `CC(C)(C)OC(=O)N[C@@H](Cc1ccccc1)C(=O)N[C@@H](Cc1cnc[nH]1)C(=O)N[C@@H](CC1CCCCC1)[C@@H](O)CS(=O)(=O)CC(=O)NCCN1CCOCC1` it was 9.4 nM; in that of `CC(C)(C)OC(=O)N[C@@H](Cc1ccccc1)C(=O)N[C@@H](Cc1c[nH]cn1)C(=O)N[C@@H](CC1CCCCC1)[C@@H](O)CSCC(=O)NCc1ccncc1` [4-[[2-[X-thio]acetamido]methyl]pyridine], 92 nM.
As for `CNCCN(C)C(=O)CSC[C@H](O)[C@H](CC1CCCCC1)NC(=O)[C@H](Cc1c[nH]cn1)NC(=O)[C@H](Cc1ccccc1)NC(=O)OC(C)(C)C` [N-[2-[[(2R,3S)-3-(Boc-L-phenylalanyl-L-histidylamino)-4-cyclohexyl-2-hydroxy-1-butyl]thio]acetyl]-N,N'-dimethylethylenediamine], the IC50 was determined as 161 nM.
For `CC(C)CC(C(=O)NCCN1CCOCC1)[S+]([O-])C[C@H](O)[C@H](CC1CCCCC1)NC(=O)[C@H](Cc1cnc[nH]1)NC(=O)[C@H](Cc1ccccc1)NC(=O)OC(C)(C)C` (stereo partly shown) [4-[2-[[(2 ---- RS )-2-[X-sulfinyl]-4-methyl-pentanoyl]amino]ethyl]morpholine], the IC50 came out at 88 nM.
Take `CC(C)CC(SC[C@H](O)[C@H](CC1CCCCC1)NC(=O)[C@H](Cc1c[nH]cn1)NC(=O)[C@H](Cc1ccccc1)NC(=O)OC(C)(C)C)C(=O)NCCN1CCOCC1` (mixture of isomers) [4-[2-[[(2RS)-2-[[(2R,3S)-3-(Boc-L-phenylalanyl-L-histidylamino)-4-cyclohexyl-2-hydroxy-1-butyl]thio]methylpentanoyl]-4-methylpentanoyl]amino]ethyl]morpholine]: the IC50 came to 73 nM.

The values above are taken from patent publication US5114925A, “Renin inhibitors containing the 2-[[(2R,3S)-3-amino-4-cyclohexyl-2-hydroxy-1-butyl]thio)alkanoyl moiety and the corresponding sulfoxide and sulfone derivatives” (Merck & Co., Inc., priority 1991, dated 1992).
